Patent publication US20230398130A1, “METHODS AND COMPOSITIONS FOR DIFFERENTIATING STEM CELLS” (Massachusetts Institute of Technology, priority 2020, published 2023)

Columns and labels:
ISC-enriched organoids [1] = assay: Primary screen, 384-well 2.5-D organoid differentiation (ENR+CD, 6 days, Target Selective Inhibitor Library, vs whole-plate median): ATP (CellTiter-Glo 3D, CTG); conditions: primary screen; for Dose.FC.CTG: FC vs plate median; for SSMD.CTG: strictly standardized mean difference; for Dose.FC.CTG (log 2 fold change): vs plate median
ISC-enriched organoids [2] = assay: Primary screen, 384-well 2.5-D organoid differentiation (ENR+CD, 6 days): carbachol-induced lysozyme secretion (LYZ.S); format: cell-based, murine; conditions: primary screen; for Dose.FC.LYZ.S: FC vs plate median; for Z.LYZ.S: standard z score; for SSMD.LYZ.S: strictly standardized mean difference; for Dose.FC.LYZ.S (log 2 fold change): vs plate median
Description: (§1) High-throughput screening.

ISC-enriched organoids [3] = assay: Primary screen, 384-well 2.5-D organoid differentiation (ENR+CD, 6 days): basal lysozyme secretion (LYZ.NS); format: cell-based, murine; conditions: primary screen; for Dose.FC.LYZ.NS: FC vs plate median; for SSMD.LYZ.NS: strictly standardized mean difference; for Dose.FC.LYZ.NS (log 2 fold change): vs plate median
Description: as §1

[4] = Dose 10.00 uM, standard z score
[5] = 1st of the 4 dose lines of the treatment (dose not given)
[6] = 2nd of the 4 dose lines of the treatment (dose not given)
[7] = 3rd of the 4 dose lines of the treatment (dose not given)
[8] = 4th of the 4 dose lines of the treatment (dose not given)
[9] = dose 0.08 uM, standard z score of FC
[10] = dose 0.40 uM, standard z score of FC
[11] = dose 2.00 uM, standard z score of FC
[12] = dose 10.00 uM, standard z score of FC

Cc1cnc(NC(=O)Nc2cc(Br)c(C)cc2OC[C@@H]2CNCCO2)cn1 [LY2603618]
Dose.FC.CTG (ISC-enriched organoids [1]; Dose 0.08 uM): −0.004 log 2 fold change
Z.CTG (ISC-enriched organoids [1]; Dose 0.08 uM, standard z score): −0.010
Dose.FC.CTG (ISC-enriched organoids [1]; Dose 0.40 uM): −0.238 log 2 fold change
Z.CTG (ISC-enriched organoids [1]; Dose 0.40 uM, standard z score): −0.567
Dose.FC.CTG (ISC-enriched organoids [1]; Dose 2.00 uM): −0.396 log 2 fold change
Z.CTG (ISC-enriched organoids [1]; Dose 2.00 uM, standard z score): −0.946
Dose.FC.CTG (ISC-enriched organoids [1]; Dose 10.00 uM): −0.983 log 2 fold change
Z.CTG (ISC-enriched organoids [1]; [4]): −2.347
SSMD.CTG (ISC-enriched organoids [1]; [5]): −0.013
SSMD.CTG (ISC-enriched organoids [1]; [6]): −0.880
SSMD.CTG (ISC-enriched organoids [1]; [7]): −1.281
SSMD.CTG (ISC-enriched organoids [1]; [8]): −2.490
Dose.FC.LYZ.S (ISC-enriched organoids [2]; Dose 0.08 uM): 0.009 log 2 fold change
Dose.FC.LYZ.S (ISC-enriched organoids [2]; Dose 0.40 uM): −0.147 log 2 fold change
Dose.FC.LYZ.S (ISC-enriched organoids [2]; Dose 2.00 uM): −0.269 log 2 fold change
Dose.FC.LYZ.S (ISC-enriched organoids [2]; Dose 10.00 uM): −0.356 log 2 fold change
Z.LYZ.S (ISC-enriched organoids [2]; [5]): 0.056
Z.LYZ.S (ISC-enriched organoids [2]; [6]): −0.953
Z.LYZ.S (ISC-enriched organoids [2]; [7]): −1.737
Z.LYZ.S (ISC-enriched organoids [2]; [8]): −2.300
SSMD.LYZ.S (ISC-enriched organoids [2]; [5]): 0.065
SSMD.LYZ.S (ISC-enriched organoids [2]; [6]): −0.885
SSMD.LYZ.S (ISC-enriched organoids [2]; [7]): −1.421
SSMD.LYZ.S (ISC-enriched organoids [2]; [8]): −1.890
Dose.FC.LYZ.NS (ISC-enriched organoids [3]; Dose 0.08 uM): −0.005 log 2 fold change
Z.LYZ.NS (ISC-enriched organoids [3]; Dose 0.08 uM, standard z score): −0.046
Dose.FC.LYZ.NS (ISC-enriched organoids [3]; Dose 0.40 uM): −0.091 log 2 fold change
Z.LYZ.NS (ISC-enriched organoids [3]; Dose 0.40 uM, standard z score): −0.791
Dose.FC.LYZ.NS (ISC-enriched organoids [3]; Dose 2.00 uM): −0.193 log 2 fold change
Z.LYZ.NS (ISC-enriched organoids [3]; Dose 2.00 uM, standard z score): −1.685
Dose.FC.LYZ.NS (ISC-enriched organoids [3]; Dose 10.00 uM): −0.233 log 2 fold change
Z.LYZ.NS (ISC-enriched organoids [3]; [4]): −2.026
SSMD.LYZ.NS (ISC-enriched organoids [3]; [5]): −0.044
SSMD.LYZ.NS (ISC-enriched organoids [3]; [6]): −0.697
SSMD.LYZ.NS (ISC-enriched organoids [3]; [7]): −1.609
SSMD.LYZ.NS (ISC-enriched organoids [3]; [8]): −1.826

CC(C)c1c(C(=O)Nc2ccccc2)c(-c2ccccc2)c(-c2ccc(F)cc2)n1CC[C@@H](O)C[C@@H](O)CC(=O)[O-].CC(C)c1c(C(=O)Nc2ccccc2)c(-c2ccccc2)c(-c2ccc(F)cc2)n1CC[C@@H](O)C[C@@H](O)CC(=O)[O-].[Ca+2] [Atorvastatin Calcium]
Dose.FC.CTG (ISC-enriched organoids [1]; dose 0.08 uM, ENR+CD 6 days): −0.129 log 2 fold change
Z.CTG (ISC-enriched organoids [1]; [9]): −0.309
Dose.FC.CTG (ISC-enriched organoids [1]; dose 0.40 uM, ENR+CD 6 days): −0.348 log 2 fold change
Z.CTG (ISC-enriched organoids [1]; [10]): −0.831
Dose.FC.CTG (ISC-enriched organoids [1]; dose 2.00 uM, ENR+CD 6 days): −1.085 log 2 fold change
Z.CTG (ISC-enriched organoids [1]; [11]): −2.591
Dose.FC.CTG (ISC-enriched organoids [1]; dose 10.00 uM, ENR+CD 6 days): −1.583 log 2 fold change
Z.CTG (ISC-enriched organoids [1]; [12]): −3.780
Dose.FC.LYZ.S (ISC-enriched organoids [2]; dose 0.08 uM, ENR+CD 6 days): 0.022 log 2 fold change
Dose.FC.LYZ.S (ISC-enriched organoids [2]; dose 0.40 uM, ENR+CD 6 days): −0.062 log 2 fold change
Dose.FC.LYZ.S (ISC-enriched organoids [2]; dose 2.00 uM, ENR+CD 6 days): −0.354 log 2 fold change
Dose.FC.LYZ.S (ISC-enriched organoids [2]; dose 10.00 uM, ENR+CD 6 days): −0.305 log 2 fold change
Dose.FC.LYZ.NS (ISC-enriched organoids [3]; dose 0.08 uM, ENR+CD 6 days): −0.009 log 2 fold change
Z.LYZ.NS (ISC-enriched organoids [3]; [9]): −0.077
Dose.FC.LYZ.NS (ISC-enriched organoids [3]; dose 0.40 uM, ENR+CD 6 days): 0.007 log 2 fold change
Z.LYZ.NS (ISC-enriched organoids [3]; [10]): 0.062
Dose.FC.LYZ.NS (ISC-enriched organoids [3]; dose 2.00 uM, ENR+CD 6 days): −0.247 log 2 fold change
Z.LYZ.NS (ISC-enriched organoids [3]; [11]): −2.148
Dose.FC.LYZ.NS (ISC-enriched organoids [3]; dose 10.00 uM, ENR+CD 6 days): −0.235 log 2 fold change
Z.LYZ.NS (ISC-enriched organoids [3]; [12]): −2.045

Cl.NC(=O)c1cnc(N[C@@H]2CCCC[C@@H]2N)nc1Nc1cccc(-n2nccn2)c1 [PRT062607 (P505-15, BIIB057) HCl]
Z.CTG (standard z score) (ISC-enriched organoids [1]; Dose 0.08 uM): −0.219
Dose.FC.CTG (log 2 fold change) (ISC-enriched organoids [1]; Dose 0.08 uM): −0.092
Z.CTG (standard z score) (ISC-enriched organoids [1]; Dose 0.40 uM): 0.191
Dose.FC.CTG (log 2 fold change) (ISC-enriched organoids [1]; Dose 0.40 uM): 0.080
Z.CTG (standard z score) (ISC-enriched organoids [1]; Dose 2.00 uM): −0.179
Dose.FC.CTG (log 2 fold change) (ISC-enriched organoids [1]; Dose 2.00 uM): −0.075
Z.CTG (standard z score) (ISC-enriched organoids [1]; Dose 10.00 uM): −0.788
Dose.FC.CTG (log 2 fold change) (ISC-enriched organoids [1]; Dose 10.00 uM): −0.330
Dose.FC.LYZ.S (log 2 fold change) (ISC-enriched organoids [2]; Dose 0.08 uM): −0.033
Dose.FC.LYZ.S (log 2 fold change) (ISC-enriched organoids [2]; Dose 0.40 uM): 0.122
Dose.FC.LYZ.S (log 2 fold change) (ISC-enriched organoids [2]; Dose 2.00 uM): −0.123
Dose.FC.LYZ.S (log 2 fold change) (ISC-enriched organoids [2]; Dose 10.00 uM): −0.298
Z.LYZ.NS (standard z score) (ISC-enriched organoids [3]; Dose 0.08 uM): 0.037
Dose.FC.LYZ.NS (log 2 fold change) (ISC-enriched organoids [3]; Dose 0.08 uM): 0.004
Z.LYZ.NS (standard z score) (ISC-enriched organoids [3]; Dose 0.40 uM): 0.194
Dose.FC.LYZ.NS (log 2 fold change) (ISC-enriched organoids [3]; Dose 0.40 uM): 0.022
Z.LYZ.NS (standard z score) (ISC-enriched organoids [3]; Dose 2.00 uM): −0.280
Dose.FC.LYZ.NS (log 2 fold change) (ISC-enriched organoids [3]; Dose 2.00 uM): −0.032
Z.LYZ.NS (standard z score) (ISC-enriched organoids [3]; Dose 10.00 uM): −1.837
Dose.FC.LYZ.NS (log 2 fold change) (ISC-enriched organoids [3]; Dose 10.00 uM): −0.211
